Source: paper PMC8348200, “Selective Antifungal Activity and Fungal Biofilm Inhibition of Tryptophan Center Symmetrical Short Peptide” (International Journal of Molecular Sciences, 2021)
Values after ≈ are worked out from the molar mass of the structure shown. Like-named read-outs stand apart in the source and are kept apart here. Residues, ends and D or L forms follow the SMILES beside them. No end group written: not given here.

Key:
[1] = test system: S. aureus 25923; experiment: microbe, parasite or virus in culture; type: cell-based, Staphylococcus aureus; conditions: 25923, 24 h; read-out: MICs, S. aureus 25923
Procedure: (§1) The peptide antimicrobial activity was determined according to the Clinical and Laboratory Standards Institute method, with modifications. Bacteria concentration was measured by ultraviolet spectrophotometer, and fungi concentration was confirmed by McMillan’s turbidimetric method, which compared the fungi solution with the standard McFarland tube in front of the horizontal line on the paper with the naked eye. Because the light has different refract in different liquids. The standard solution is composed of sulfuric acid and barium chloride, which is equivalent to 1*10^8 CFU fungi. After cultivation, the growth of fungi and bacteria was measured by TECAN automatic enzyme label instrument. Briefly, bacterial cells were cultured in MHB until logarithmic phase, yeast colonies cultured in Yeast Peptone Dextrose Agar (YPDA) were picked and diluted in RPMI 1640 growth medium buffered with morpholine propane sulfonic acid (MOPS), and then 50 μL of bacterial or fungi cell solution (0.5–1 × 10^4 CFU/mL) was added to each well of sterile 96-well plates. Each well contained 50 μL of AMPs dissolved in BSA; the final concentrations of the peptides ranged from 0.5 to 128 μM. The lowest concentration of peptide with no microbial growth being observed were measured after incubation at 37 °C for 24 h for bacteria or at 28 °C for 48 h for fungi. Broth with microbial cells and un-inoculated broth were used as positive control and negative controls, respectively.

[2] = test system: S. aureus 29213; experiment: microbe, parasite or virus in culture; type: cell-based, Staphylococcus aureus; conditions: 29213, 24 h; read-out: MICs, S. aureus 29213
Procedure: as §1

[3] = test system: C.albicans cgmcc 2.2086; experiment: microbe, parasite or virus in culture; type: cell-based, Candida albicans; conditions: cgmcc 2.2086, 24 h
Procedure: as §1, with “The lowest concentration of peptide with no microbial growth being observed were measured after incubation at 37 °C for 24 h for bacteria or at 28 °C for 48 h for fungi.” left out
The salt and acid sensitivities of the peptides were measured using with modified method to test MIC values; tested peptides were incubated in the presence of different final concentrations of physiological salts. The subsequent steps were consistent with the MIC determination protocol.

[4] = test system: L. plantarum 7469; experiment: microbe, parasite or virus in culture; type: cell-based; conditions: 24 h; read-out: MICs, L. plantarum 7469
Procedure: as §1

[5] = test system: C. tropicalis cgmcc 2.1975; experiment: microbe, parasite or virus in culture; type: cell-based; conditions: cgmcc 2.1975, 48 h; read-out: MICs, C. tropicalis cgmcc 2.1975
Procedure: as §1

[6] = test system: C. parapsilosis cgmcc 2.3989; experiment: microbe, parasite or virus in culture; type: cell-based; conditions: cgmcc 2.3989, 48 h; read-out: MICs, C. parapsilosis cgmcc 2.3989
Procedure: as §1

[7] = test system: E. coli 25922; experiment: microbe, parasite or virus in culture; type: cell-based, Escherichia coli; conditions: 25922, 24 h; read-out: MICs, E. coli 25922
Procedure: as §1

[8] = test system: E. coli UB1005; experiment: microbe, parasite or virus in culture; type: cell-based, Escherichia coli; conditions: UB1005, 24 h; read-out: MICs, E. coli UB1005
Procedure: as §1

[9] = test system: Fluconazole-resistant C. albicans 56214; experiment: microbe, parasite or virus in culture; conditions: fluconazole-resistant strain; RPMI 1640 buffered with MOPS, 28 °C 48 h, 0.5-128 μM
Procedure: as §1, with “Bacteria concentration was measured by ultraviolet spectrophotometer, and fungi concentration was confirmed by McMillan’s turbidimetric method, which compared the fungi solution with the standard McFarland tube in front of the horizontal line on the paper with the naked eye.” left out, “The lowest concentration of peptide with no microbial growth being observed were measured after incubation at 37 °C for 24 h for bacteria or at 28 °C for 48 h for fungi.” left out

[10] = test system: L. rhamnosus 1.0911; experiment: microbe, parasite or virus in culture; type: cell-based, Lactobacillus rhamnosus; conditions: 24 h; read-out: MICs, L. rhamnosus 1.0911
Procedure: as §1

[11] = test system: L. rhamnosus 1.0385; experiment: microbe, parasite or virus in culture; type: cell-based, Lactobacillus rhamnosus; conditions: 24 h; read-out: MICs, L. rhamnosus 1.0385
Procedure: as §1

[12] = test system: S. thermophilus YM-C; experiment: microbe, parasite or virus in culture; type: cell-based, Streptococcus thermophiles; conditions: 24 h; read-out: MICs, S. thermophilus YM-C
Procedure: as §1

[13] = test system: C. albicans SP3937; experiment: microbe, parasite or virus in culture; type: cell-based, Candida albicans; conditions: clinical isolate; RPMI 1640 buffered with MOPS, 28 °C 48 h, 0.5-128 μM; read-out: MICs, C. albicans SP3937
Procedure: as §1

[14] = test system: C. albicans Isolated from Alveolar Fluid; experiment: microbe, parasite or virus in culture; type: cell-based, Candida albicans; conditions: RPMI 1640 buffered with MOPS, 28 °C 48 h, 0.5-128 μM; read-out: MICs, C. albicans Isolated from Alveolar Fluid
Procedure: as §1

[15] = test system: C. albicans SP3903; experiment: microbe, parasite or virus in culture; type: cell-based, Candida albicans; conditions: clinical isolate; RPMI 1640 buffered with MOPS, 28 °C 48 h, 0.5-128 μM; read-out: MICs, C. albicans SP3903
Procedure: as §1

[16] = test system: C. albicans SP3902; experiment: microbe, parasite or virus in culture; type: cell-based, Candida albicans; conditions: clinical isolate; RPMI 1640 buffered with MOPS, 28 °C 48 h, 0.5-128 μM; read-out: MICs, C. albicans SP3902
Procedure: as §1

[17] = test system: C. albicans cgmcc 2.2086; experiment: microbe, parasite or virus in culture; type: cell-based, Candida albicans; conditions: cgmcc 2.2086, 48 h; read-out: MICs, C. albicans cgmcc 2.2086
Procedure: as §1

[18] = test system: human red blood cells; experiment: Hemolysis assay; type: cell-based; conditions: at the highest tested concentration; fresh human erythrocytes
Procedure: The cytotoxicity of the peptides was determined with three cell types, including the Pig kidney cells, HEK 293T cells and fresh, healthy human red blood cells (donated by Zhihua Wang) via the MTT dye reduction assay and hemolysis assay.

Compound	MIC [1] [µM]	MIC [2] [µM]	MIC [4] [µM]	MIC [5] [µM]	MIC [6] [µM]	MIC [7] [µM]	MIC [8] [µM]	MICs, C. albicans 56214 [9] [µM]	MIC [10] [µM]	MIC [11] [µM]	MIC [12] [µM]	MIC [13] [µM]	MIC [14] [µM]	MIC [15] [µM]	MIC [16] [µM]	MIC [17] [µM]	also measured
RRFSFWFSFRR-NH2 [Peptide P19]	>128	128	>128	2	2	128	128	4	>128	>128	>128	4	4	2	4	2	MIC ([3]; read-out: MIC in acid environment, pH = 6): 4 µM; MIC ([3]; read-out: MIC in the presence of FeCl3): 4 µM; MIC ([3]; read-out: MIC in the presence of KCl): 4 µM; MIC ([3]; read-out: MIC in the presence of MgCl2): 4 µM; MIC ([3]; read-out: MIC in the presence of NH4Cl): 4 µM; MIC ([3]; read-out: MIC in the presence of NaCl): 32 µM; MIC ([3]; read-out: MIC in the presence of ZnCl2): 4 µM; MIC ([3]; read-out: MIC, Control): 2 µM; hemolysis [18]: less than 5%
CC(C)C[C@H](NC(=O)[C@H](CS)NC(=O)[C@H](CC(C)C)NC(=O)[C@H](Cc1c[nH]c2ccccc12)NC(=O)[C@H](CC(C)C)NC(=O)[C@H](CS)NC(=O)[C@H](CC(C)C)NC(=O)[C@H](CCCNC(=N)N)NC(=O)[C@@H](N)CCCNC(=N)N)C(=O)N[C@@H](CCCNC(=N)N)C(=O)N[C@@H](CCCNC(=N)N)C(N)=O [Peptide P3] (H-RRLCLWLCLRR-NH2; N-terminus assumed)	8 (≈ 11.9 µg/mL)	8 (≈ 11.9 µg/mL)	128 (≈ 190 µg/mL)	4 (≈ 5.95 µg/mL)	16 (≈ 23.8 µg/mL)	4 (≈ 5.95 µg/mL)	2 (≈ 2.97 µg/mL)	16	128 (≈ 190 µg/mL)	>128	>128	16 (≈ 23.8 µg/mL)	16 (≈ 23.8 µg/mL)	16 (≈ 23.8 µg/mL)	16 (≈ 23.8 µg/mL)	8 (≈ 11.9 µg/mL)	–
RRLSLWLSLRR-NH2 [Peptide P2]	16	4	128	2	8	4	2	8	8	8	>128	8	8	16	16	4	–
RRLALWLALRR-NH2 [Peptide P1]	8	8	>128	2	8	4	2	16	64	8	128	16	8	16	32	8	–
RRISIWISIRR-NH2 [Peptide P17]	128	128	>128	1	1	128	16	4	32	8	>128	4	8	2	4	4	–
